For assay [1], the system named is S. aureus FDA 209-P. Briefly: Agar plate dilution assay (MIC), S. aureus FDA 209-P. It is filed as cell-based. The conditions noted are these: Staphylococcus aureus, FDA209, inoculum size 10^6 cells/ml.
Assay [2] has as its system E. faecalis ATCC-21212. As to the kind of experiment: Agar plate dilution assay (MIC), E. faecalis ATCC-21212. In kind it is cell-based. The conditions noted are these: Enterococcus faecalis, ATCC21212, inoculum size 10^6 cells/ml.
The test system of assay [3] is MRSA 92-1044. As to the kind of experiment: Agar plate dilution assay (MIC), MRSA 92-1044. In kind it is cell-based, methicillin-resistant Staphylococcus aureus. Particulars: Staphylococcus aureus, inoculum size 10^6 cells/ml.
The test system of assay [4] is E. coli NIHJ JC-2. As to the kind of experiment: Agar plate dilution assay (MIC), E. coli NIHJ JC-2. In kind it is cell-based. Particulars: Escherichia coli, NIHJJC2, inoculum size 10^6 cells/ml.
For assay [5], the system named is S. marcescens IFO-12648. Briefly: Agar plate dilution assay (MIC), S. marcescens IFO-12648. The conditions noted are these: Serratia marcescens, IFO12648, inoculum size 10^6 cells/ml. It is filed as cell-based.

≈ marks a conversion by molar mass, not a printed value.

As usually defined, the MIC is the smallest concentration in the dilution series that meets the test's criterion for growth inhibition.

As for `C[N+](C)(C)CC[n+]1ccc(SC=CC2=C(C(=O)O)N3C(=O)C(NC(=O)C(=NOC4CCCC4)c4csc(N)n4)C3SC2)cc1` (centres unmarked) [(a)], the MIC in assay [1] turned out to be 0.39 µg/mL; in assay [2], 0.39 µg/mL; in assay [3], 6.25 µg/mL; in assay [4] it was 0.39 µg/mL; in assay [5] it was 3.13 µg/mL.
Turning to `C[N+](C)(C)CC[n+]1ccc(SC=CC2=C(C(=O)O)N3C(=O)C(NC(=O)C(=NO)c4csc(N)n4)C3SC2)cc1` (centres unmarked) [(b)], the MIC in assay [1] worked out at 0.1 µg/mL; in assay [2] it was 0.1 µg/mL; in assay [3], 1.56 µg/mL; in assay [4], 0.05 µg/mL; in assay [5] it was 0.1 µg/mL.
Regarding `C[N+](C)(CC[n+]1ccc(SC=CC2=C(C(=O)O)N3C(=O)C(NC(=O)C(=NO)c4csc(N)n4)C3SC2)cc1)CC(N)=O` (centres unmarked) [(c)], the MIC in assay [1] was determined as 0.1 µg/mL; in assay [2], 0.1 µg/mL; in assay [3] it was 1.56 µg/mL; in assay [4], 0.025 µg/mL; in assay [5], 0.1 µg/mL.
Regarding `CC(=O)C[N+](C)(C)CC[n+]1ccc(SC=CC2=C(C(=O)O)N3C(=O)C(NC(=O)C(=NO)c4csc(N)n4)C3SC2)cc1` (centres unmarked) [(d)], the MIC came to 0.2 µg/mL in assay [1]; 0.2 µg/mL in assay [2]; 1.56 µg/mL in assay [3]; 0.025 µg/mL in assay [4]; 0.2 µg/mL in assay [5].
With `C[N+](C)(CCO)CC[n+]1ccc(SC=CC2=C(C(=O)O)N3C(=O)C(NC(=O)C(=NO)c4csc(N)n4)C3SC2)cc1` (centres unmarked) [(e)], the MIC in assay [1] is 0.1 µg/mL; in assay [2], 0.1 µg/mL; in assay [3], 1.56 µg/mL; in assay [4] it was 0.05 µg/mL; in assay [5], 0.1 µg/mL.
Take `C[N+]1(CC[n+]2ccc(SC=CC3=C(C(=O)O)N4C(=O)C(NC(=O)C(=NO)c5csc(N)n5)C4SC3)cc2)CCOCC1` (centres unmarked) [(f)]: the MIC was 0.1 µg/mL in assay [1]; 0.2 µg/mL in assay [2]; 1.56 µg/mL in assay [3]; 0.025 µg/mL in assay [4]; 0.1 µg/mL in assay [5].
With `CO[C@@]1(NC(=O)CSC(F)F)C(=O)N2C(C(=O)O)=C(CSc3nnnn3CCO)CO[C@@H]21` [FMOX, flomoxef, reference compound], the MIC in assay [1] is 0.2 µg/mL (≈ 0.403 µM); in assay [2], 100 µg/mL (≈ 201 µM); in assay [3], more than 100 µg/mL; in assay [4], 0.05 µg/mL (≈ 0.101 µM); in assay [5], 0.2 µg/mL (≈ 0.403 µM).
